Reference: US20250034135A1, “ANTI-APOPTOTIC PROTEIN BCL-2 INHIBITOR, PHARMACEUTICAL COMPOSITION AND USES THEREOF” (HANGZHOU HEALZEN THERAPEUTICS CO., LTD., priority 2021, published 2025)

Target: BCL2 (Homo sapiens (Human), UniProt P10415)
Assay: Molecular level activity test of anti-apoptotic protein BCL2 (HTRF, binding to Bim peptide)
Conditions: HTRF, binding of BCL2 to Bim peptide; read-out: BCL2 nM (inhibitory activity, IC50)
Summary of the method: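 Signal comes from proximity of anti-His-labelled BCL2 and streptavidin-XL665-bound biotin-BIM peptide. Test compounds, added in 2% DMSO, were preincubated with protein and peptide for one hour; detection reagents then incubated four hours at room temperature before reading.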

Chain of BCL2 (P10415 whole entry): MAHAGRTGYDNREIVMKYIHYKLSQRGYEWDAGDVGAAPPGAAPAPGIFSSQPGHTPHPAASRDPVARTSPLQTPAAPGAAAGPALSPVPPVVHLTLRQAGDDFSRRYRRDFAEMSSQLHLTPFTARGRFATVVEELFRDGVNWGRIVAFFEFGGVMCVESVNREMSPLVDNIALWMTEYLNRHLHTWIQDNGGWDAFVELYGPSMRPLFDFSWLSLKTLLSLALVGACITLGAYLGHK

Row | IC50 | SMILES
1 | < 0.01 µM | CC(C)c1ccccc1[C@@H]1CCCN1C1CC2(CCN(c3cc(Oc4cnc5[nH]ccc5c4)c(C(=O)NS(=O)(=O)c4cc([N+](=O)[O-])c(NCC5(F)CCN(CC(F)(F)F)CC5)c5[nH]cnc45)cn3)CC2)C1 [compound 031, (S)-4-((1H-pyrrolo[2,3-b]pyrid-5-yl)oxy)-N-((7-(((4-fluoro-1-(2,2,2-trifluoroethyl)piperid-4-yl)methyl)amino)-6-nitro-1H-benzo[d]imidazol-4-yl)sulfonyl)-6-(2-(2-(2-isopropylphenyl)pyrrolidin-1-yl)-7-azaspiro[3.5]non-7-yl) nicotinamide]
2 | < 0.01 µM | COc1ccc(CN2CCN(C3CC4(CCN(c5cc(Oc6cnc7[nH]ccc7c6)c(C(=O)NS(=O)(=O)c6ccc(NC[C@H]7CC[C@](C)(O)CC7)c([N+](=O)[O-])c6)cc5F)CC4)C3)C(c3ccccc3C(C)C)C2)cc1 (stereo partly drawn) [compound 055, 2-((1H-pyrrolo[2,3-b]pyrid-5-yl)oxy)-5-fluoro-N-((4-((((1r,4r)-4-hydroxy-4-methylcyclohexyl)methyl)amino)-3-nitrophenyl)sulfonyl)-4-(2-(2-(2-isopropylphenyl)-4-(4-methoxybenzyl)piperazin-1-yl)-7-azaspiro[3.5]non-7-yl)benzamide]
3 | < 0.01 µM | CC(C)c1ccccc1[C@@H]1CN(Cc2c(F)cccc2F)CCN1C1CC2(CCN(c3ccc(C(=O)NS(=O)(=O)c4cc([N+](=O)[O-])c(NC[C@H]5CC[C@](C)(O)CC5)c5c4OCO5)c(Oc4cnc5[nH]ccc5c4)c3)CC2)C1 [compound 177, 2-((1H-pyrrolo[2,3-b]pyrid-5-yl)oxy)-4-(2-((R)-4-(2,6-difluorobenzyl)-2-(2-isopropylphenyl)piperazin-1-yl)-7-azaspiro[3.5]non-7-yl)-N-((7-((((1r, 4r)-4-hydroxy-4-methylcyclohexyl)methyl)amino)-6-nitrobenzo[d][1,3]dioxocyclopent-4-yl)sulfonyl)benzamide]
4 | < 0.01 µM | CC(C)c1ccccc1C1CN(C2CCOCC2)CCN1C1CC2(C1)CN(c1cc(Oc3cnc4[nH]ccc4c3)c(C(=O)NS(=O)(=O)c3ccc(NC[C@H]4CC[C@](C)(O)CC4)c([N+](=O)[O-])c3)cn1)C2 (stereo partly drawn) [compound 052, 4-((1H-pyrrolo[2,3-b]pyrid-5-yl)oxy)-N-((4-((((1r,4r)-4-hydroxy-4-methylcyclohexyl)methyl)amino)-3-nitrophenyl)sulfonyl)-6-(6-(2-(2-isopropylphenyl)-4-(tetrahydro-2H-pyran-4-yl)piperazin-1-yl)-2-azaspiro[3.3]hept-2-yl) nicotinamide]

Further lines, the compound ahead of its results:

Row | SMILES | IC50
5 | COc1ccc(CN2CCN(C3CC4(CCN(c5cc(Oc6cnc7[nH]ccc7c6)c(C(=O)NS(=O)(=O)c6cc([N+](=O)[O-])c(NCC7(F)CCOCC7)c7ocnc67)cc5F)CC4)C3)[C@H](c3ccccc3C(C)C)C2)cn1 [compound 127, (R)-2-((1H-pyrrolo[2,3-b]pyrid-5-yl)oxy)-5-fluoro-N-((7-(((4-fluorotetrahydro-2H-pyran-4-yl)methyl)amino)-6-nitrobenzo[d]oxazol-4-yl)sulfonyl)-4-(2-(2-(2-isopropylphenyl)-4-((6-methoxypyrid-3-yl)methyl)piperazin-1-yl)-7-azaspiro[3.5]non-7-yl)benzamide] | < 0.01 µM
6 | COc1ccc(CN2CCN(C3CC4(CCN(c5cc(Oc6cnc7[nH]ccc7c6)c(C(=O)NS(=O)(=O)c6cc([N+](=O)[O-])c(NCC7(F)CCOCC7)c7occc67)cc5F)CC4)C3)[C@H](c3ccccc3C(C)C)C2)cn1 [compound 129, (R)-2-((1H-pyrrolo[2,3-b]pyrid-5-yl)oxy)-5-fluoro-N-((7-(((4-fluorotetrahydro-2H-pyran-4-yl)methyl)amino)-6-nitrobenzofuran-4-yl)sulfonyl)-4-(2-(2-(2-isopropylphenyl)-4-((6-methoxypyrid-3-yl)methyl)piperazin-1-yl)-7-azaspiro[3.5]non-7-yl)benzamide] | < 0.01 µM
